From patent publication US9365583B2, “Substituted pyrazoles and uses thereof” (Genentech, Inc., priority 2013, dated 2016) come the findings set out here.

By Ki is commonly meant a dissociation constant, usually derived from enzyme kinetics or from competition with a known ligand. A high value points to lower affinity.

In the experiment the target is T1, N-terminally GST-tagged DLK (catalytic domain amino acid 1-520) (Homo sapiens, UniProt Q12852).
T1 construct: N-terminally GST-tagged DLK (catalytic domain amino acid 1-520); purchased Carna Bioscience
T1 sequence (Q12852 1-520): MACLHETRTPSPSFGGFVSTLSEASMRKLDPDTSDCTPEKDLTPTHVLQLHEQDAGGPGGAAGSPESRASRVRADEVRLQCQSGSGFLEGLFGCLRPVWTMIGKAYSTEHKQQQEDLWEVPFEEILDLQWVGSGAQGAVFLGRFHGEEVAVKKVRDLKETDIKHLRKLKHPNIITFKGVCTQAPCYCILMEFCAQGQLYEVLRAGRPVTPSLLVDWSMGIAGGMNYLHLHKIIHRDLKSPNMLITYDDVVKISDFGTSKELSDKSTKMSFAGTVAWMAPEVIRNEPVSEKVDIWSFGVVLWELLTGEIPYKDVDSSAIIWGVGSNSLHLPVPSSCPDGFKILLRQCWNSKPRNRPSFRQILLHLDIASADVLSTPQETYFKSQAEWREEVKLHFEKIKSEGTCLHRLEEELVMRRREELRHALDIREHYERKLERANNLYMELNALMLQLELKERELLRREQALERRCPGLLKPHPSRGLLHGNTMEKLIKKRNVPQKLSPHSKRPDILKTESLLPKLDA
Kind of experiment: DLK TR-FRET inhibition assay. Type of experiment: biochemical. The following applies: 5 nM GST-DLK, 40 nM HIS-MKK4 K131M substrate, 30 μM ATP, 60 minutes at ambient temperature. Put shortly:
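5 nM GST-DLK (aa 1-520), 40 nM HIS-MKK4 K131M and 30 μM ATP reacted 60 min at ambient temperature in HEPES pH 7.5 buffer with 10 mM MgCl2, compound 1:3 serially diluted from 20 uM. TR-FRET detection of phospho-MKK4 used Eu-cryptate anti-phospho-MKK4 plus D2 anti-HIS, read after 3 h (665/615 nm).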
For orientation: Time-resolved FRET reads energy transfer from a long-lived donor to a nearby acceptor.
`CC(=O)N(C)[C@H]1C[C@@H]2[C@H](C1)[C@H]2c1cc(-c2cnc(N)c(C(F)(F)F)c2)nn1C(C)C` [compound 182, N-((1R,5S,6r)-6-(3-(6-amino-5-(trifluoromethyl)pyridin-3-yl)-1-isopropyl-1H-pyrazol-5-yl)bicyclo [3.1.0]hexan-3-yl)-N-methylacetamide] returned a Ki of 3 nM. As for `Nc1ncc(-c2cc([C@H]3[C@@H]4C[C@H](N5CCOCC5)C[C@@H]43)n(CC3CC3)n2)cc1OC(F)F` [compound 274, 5-(1-(cyclopropylmethyl)-5-((1R,3r,5S,6r)-3-morpholinobicyclo [3.1.0]hexan-6-yl)-1H-pyrazol-3-yl)-3-(difluoromethoxy)pyridin-2-amine], the Ki was 1.3 nM. The molecule `CC(C)n1nc(-c2cnc(N)c(C(F)(F)F)c2)cc1[C@H]1[C@@H]2C[C@H](N3CCOC3=O)C[C@@H]21` [compound 59, 3-((1R,3r,5S,6r)-6-(3-(6-amino-5-(trifluoromethyl)pyridin-3-yl)-1-isopropyl-1H-pyrazol-5-yl)bicyclo[3.1.0]hexan-3-yl) oxazolidin-2-one] registered a Ki of 3.06 nM.

Take `CC(C)n1nc(-c2cnc(N)c(C(F)(F)F)c2)cc1[C@H]1[C@@H]2C[C@@H](N3CCO[C@@H](C)C3)C[C@@H]21` [compound 112, 5-(1-isopropyl-5-((1R,3s,5S,6S)-3-((S)-2-methylmorpholino)bicyclo[3.1.0]hexan-6-yl)-1H-pyrazol-3-yl)-3-(trifluoromethyl) pyridin-2-amine]: the inhibition constant (Ki) was found to be 5.87 nM. As for `COCC1(F)C[C@@H]2[C@H](C1)[C@H]2c1cc(-c2cnc(N)c(C(F)(F)F)c2)nn1C(C)C` (stereo partly drawn) [compound 166, 5-(5-((1R,5S,6r)-3-fluoro-3-(methoxymethyl)bicyclo[3.1.0]hexan-6-yl)-1-isopropyl-1H-pyrazol-3-yl)-3-(trifluoromethyl)pyridin-2-amine], the Ki stood at 6.7 nM. As for `CO[C@H]1C[C@@H]2[C@H](C1)[C@H]2c1cc(-c2cnc(N)c(OC(F)F)c2)nn1C(C)C` [compound 187, 3-(difluoromethoxy)-5-(1-isopropyl-5-((1R,3r,5S,6r)-3-methoxy-bicyclo[3.1.0]hexan-6-yl)-1H-pyrazol-3-yl)pyridin-2-amine], the Ki worked out at 2.2 nM. With `Nc1ncc(-c2cc([C@H]3[C@@H]4C[C@H](N5CCOCC5)C[C@@H]43)n(CC(F)F)n2)cc1C(F)(F)F` [compound 91, 5-(1-(2,2-difluoroethyl)-5-((1R,3r,5S,6r)-3-morpholinobicyclo [3.1.0]hexan-6-yl)-1H-pyrazol-3-yl)-3-(trifluoromethyl)pyridin-2-amine], the affinity, expressed as Ki, was 3.79 nM. As for `CC(C)n1nc(-c2cnc(N)c(OC(F)F)c2)cc1[C@H]1[C@@H]2C[C@H](N3CCOC[C@@H]3C)C[C@@H]21` [compound 80, 3-(difluoromethoxy)-5-(1-isopropyl-5-((1R,3r,5S,6S)-3-((S)-3-methylmorpholino)bicyclo[3.1.0]hexan-6-yl)-1H-pyrazol-3-yl) pyridin-2-amine], the affinity corresponds to a Ki of 0.6 nM. Take `COCC1(F)CCN(C2C[C@@H]3C(c4cc(-c5cnc(N)c(OC(F)F)c5)nn4C(C)C)[C@@H]3C2)C1` (single isomer, unassigned) [compound 174]: the affinity corresponds to a Ki of 5.2 nM. As for `CC(C)n1nc(-c2cnc3ccn([C@H](C)c4ccccn4)c3c2)cc1[C@H]1[C@@H]2C[C@@H](N3CCOCC3)C[C@@H]21` [compound 25, 4-((1R,3S,5S,6r)-6-(1-isopropyl-3-(1-((R)-1-(pyridin-2-yl)ethyl)-1H-pyrrolo[3,2-b]pyridin-6-yl)-1H-pyrazol-5-yl)bicyclo[3.1.0]hexan-3-yl)morpholine], the affinity corresponds to a Ki of 70.6 nM.

On to `CC(C)n1nc(-c2cnc(N)c(C(F)(F)F)c2)cc1[C@H]1[C@@H]2C[C@@H](n3cccn3)C[C@@H]21` [compound 110, 5-(5-((1R,3s,5S,6r)-3-(1H-pyrazol-1-yl)bicyclo[3.1.0]hexan-6-yl)-1-isopropyl-1H-pyrazol-3-yl)-3-(trifluoromethyl)pyridin-2-amine], for which the affinity, expressed as Ki, was 3.89 nM. For `CC(C)n1nc(-c2cnc(N)c(C(F)(F)F)c2)cc1[C@H]1[C@@H]2C[C@@H](N(C)C)C[C@@H]21` [compound 189, 5-(5-((1R,3s,5S,6r)-3-(dimethylamino)bicyclo[3.1.0]hexan-6-yl)-1-isopropyl-1H-pyrazol-3-yl)-3-(trifluoromethyl)pyridin-2-amine] the value was 2.9 nM; for `CC(C)n1nc(-c2cnc(N)c(OC(F)F)c2)cc1[C@H]1[C@@H]2C[C@@H](N3C[C@@H](F)[C@@H](F)C3)C[C@@H]21` [compound 119, 3-(difluoromethoxy)-5-(5-((1R, 3s,5S,6R)-3-((3S,4R)-3,4-difluoro-pyrrolidin-1-yl)bicyclo[3.1.0]hexan-6-yl)-1-isopropyl-1H-pyrazol-3-yl)pyridin-2-amine], 6.64 nM. In the case of `CC(C)n1nc(-c2cnc(N)c(OC(F)(F)F)c2)cc1[C@H]1[C@@H]2C[C@@]3(CCN3C3COC3)C[C@@H]21` [compound 140, 5-(1-isopropyl-5-((1′R,2r,5′S,6′r)-1-(oxetan-3-yl)spiro[azetidine-2,3′-bicyclo[3.1.0]hexan]-6′-yl)-1H-pyrazol-3-yl)-3-(trifluoro-methoxy)pyridin-2-amine] it was 6.59 nM. Regarding `CO[C@@H]1CCN([C@@H]2C[C@@H]3[C@H](C2)[C@H]3c2cc(-c3cnc(N)c(OC(F)F)c3)nn2C(C)C)C1` [compound 194, 3-(difluoromethoxy)-5-(1-isopropyl-5-((1R,3s,5S,6R)-3-((R)-3-methoxypyrrolidin-1-yl)bicyclo [3.1.0]hcxan-6-yl)-1 H-pyrazol-3-yl)pyridin-2-amine], the Ki is 2 nM. The molecule `COCCN(C)[C@@H]1C[C@@H]2[C@H](C1)[C@H]2c1cc(-c2cnc(N)c(C(F)(F)F)c2)nn1C(C)C` [compound 291, 5-(1-isopropyl-5-((1R,3s,5S,6r)-3-((2-methoxyethyl)(methyl)amino)bicyclo[3.1.0]hexan-6-yl)-1H-pyrazol-3-yl)-3-(trifluoromethyl) pyridin-2-amine] registered a Ki of 4.7 nM. In the case of `CC(C)n1nc(-c2cnc(N)c(OC(F)(F)F)c2)cc1[C@H]1[C@@H]2C[C@@H](N3CC4(CCCO4)C3)C[C@@H]21` [compound 221, 5-(5-((1R,3s,5S,6r)-3-(5-oxa-2-azaspiro[3.4]octan-2-yl)bicyclo [3.1.0]hexan-6-yl)-1-isopropyl-1H-pyrazol-3-yl)-3-(trifluoromethoxy) pyridin-2-amine], the affinity corresponds to a Ki of 2 nM. As to `CC(C)n1nc(-c2cnc(N)c(C(F)(F)F)c2)cc1[C@H]1[C@@H]2C[C@H](N3CC(F)C3)C[C@@H]21` [compound 36, 5-(5-((1R,3r,5S,6r)-3-(3-fluoro-azetidin-1-yl)bicyclo[3.1.0]hexan-6-yl)-1-isopropyl-1H-pyrazol-3-yl)-3-(trifluoromethyl)pyridin-2-amine], the Ki came to 1.53 nM. In turn, `CC(C)n1nc(-c2cnc(N)c(C(F)(F)F)c2)cc1[C@H]1[C@@H]2C[C@H](N3CCC3)C[C@@H]21` [compound 30, 5-(5-((1R,3r,5S,6r)-3-(azetidin-1-yl)bicyclo[3.1.0]hexan-6-yl)-1-isopropyl-1H-pyrazol-3-yl)-3-(trifluoromethyl)pyridin-2-amine] came in with a Ki of 3.59 nM. In the case of `COC1CCN([C@H]2C[C@@H]3[C@H](C2)[C@H]3c2cc(-c3cnc(N)c(OC(F)F)c3)nn2C(C)C)C1` (stereo partly drawn) [compound 73, 3-(difluoromethoxy)-5-(1-isopropyl-5-((lR,3r,5S,6r)-3-(3-methoxy-pyrrolidin-1-yl)bicyclo[3.1.0]hexan-6-yl)-1H-pyrazol-3-yl) pyridin-2-amine] it was 1.81 nM.

On to `CC(C)n1nc(-c2cnc(N)c(OC(F)(F)F)c2)cc1[C@H]1[C@@H]2C[C@H](N3CC(F)C3)C[C@@H]21` [compound 29, 5-(5-((1R,3r,5S,6r)-3-(3-fluoro-azetidin-1-yl)bicyclo[3.1.0]hexan-6-yl)-1-isopropyl-1H-pyrazol-3-yl)-3-(trifluoromethoxy) pyridin-2-amine], for which the Ki was found to be 2.83 nM. `CC(C)n1nc(-c2cnc(N)c(C(F)(F)F)c2)cc1[C@H]1[C@@H]2C[C@@H](N3CCN(C)CC3)C[C@@H]21` [compound 67, 5-(1-isopropyl-5-((1R,3s,5S,6r)-3-(4-methylpiperazin-1-yl)bicyclo [3.1.0]hexan-6-yl)-1H-pyrazol-3-yl)-3-(trifluoromethyl)pyridin-2-amine] yielded a Ki of 3.93 nM. The molecule `CC(C)n1nc(-c2cnc(N)c(OC(F)F)c2)cc1[C@H]1[C@@H]2C[C@H](N3CC4(CCCO4)C3)C[C@@H]21` [compound 225, 5-(5-((1R,3r,5S,6r)-3-(5-oxa-2-azaspiro[3.4]octan-2-yl)bicyclo [3.1.0]hexan-6-yl)-1-isopropyl-1H-pyrazol-3-yl)-3-(difluoro-methoxy)pyridin-2-amine] showed a Ki of 4.2 nM.
